ChEMBL document CHEMBL1201862, “PubChem BioAssay data set” (2004)
Active and inactive are the calls of the source.

How the values were obtained:
Mu-type opioid receptor = Mu-type opioid receptor (Homo sapiens, UniProt P35372); assay type: functional, cell-based;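 also: U2OS cells with beta-arrestin recruitment to OPRM1 by beta-gal complementation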
[1] = biological target: 5-hydroxytryptamine receptor 2A (Mus musculus, UniProt P35363); assay type: functional, cell-based;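 also: CHO-K1 cells with tagged receptor and beta-arrestin; agonist potency measured as compound-induced activation of the receptor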
Chain of 5-hydroxytryptamine receptor 2A (P35363 whole entry, the tested form may be a part): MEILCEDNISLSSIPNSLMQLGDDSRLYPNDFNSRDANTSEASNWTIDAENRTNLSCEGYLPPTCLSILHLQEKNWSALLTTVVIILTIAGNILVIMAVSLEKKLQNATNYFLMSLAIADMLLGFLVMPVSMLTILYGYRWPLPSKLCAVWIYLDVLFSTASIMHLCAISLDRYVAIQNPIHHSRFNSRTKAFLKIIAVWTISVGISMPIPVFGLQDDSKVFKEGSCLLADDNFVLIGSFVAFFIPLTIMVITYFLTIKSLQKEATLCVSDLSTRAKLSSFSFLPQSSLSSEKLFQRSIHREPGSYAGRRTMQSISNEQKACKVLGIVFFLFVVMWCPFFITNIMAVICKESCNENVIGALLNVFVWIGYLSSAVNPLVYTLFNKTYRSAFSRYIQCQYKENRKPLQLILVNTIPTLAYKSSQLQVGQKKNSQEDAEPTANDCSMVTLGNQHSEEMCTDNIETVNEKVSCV

[2] = biological target: T1, Oxysterols receptor LXR-beta (Homo sapiens, UniProt P55055); assay type: functional, cell-based;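 also: Cell-based luminescence dose-response assay of agonist activity at LXR, run as a confirmatory counterscreen to a daf-12 agonist screen; HEK293 cells with Gal4-LXR fusion and GAL4-driven luciferase reporter; agonist potency from rising luciferase signal of a Gal4-LXR reporter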
T1 sequence (P55055 whole entry): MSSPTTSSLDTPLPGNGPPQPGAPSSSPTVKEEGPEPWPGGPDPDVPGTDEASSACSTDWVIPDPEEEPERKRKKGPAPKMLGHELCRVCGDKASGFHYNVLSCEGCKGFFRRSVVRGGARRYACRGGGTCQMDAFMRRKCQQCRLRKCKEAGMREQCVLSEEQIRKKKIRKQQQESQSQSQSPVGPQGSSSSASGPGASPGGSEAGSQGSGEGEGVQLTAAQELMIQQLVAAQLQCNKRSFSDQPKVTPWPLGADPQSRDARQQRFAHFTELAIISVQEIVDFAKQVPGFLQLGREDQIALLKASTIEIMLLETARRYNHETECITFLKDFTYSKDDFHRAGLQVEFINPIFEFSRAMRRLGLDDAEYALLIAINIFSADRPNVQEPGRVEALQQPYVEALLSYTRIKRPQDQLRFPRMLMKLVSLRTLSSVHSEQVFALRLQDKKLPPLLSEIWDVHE

[3] = biological target: T2, Methionyl-tRNA synthetase, putative (Trypanosoma brucei brucei, UniProt Q38C91); assay type: functional, Trypanosoma brucei brucei strain 927/4 GUTat10.1
T2 sequence (Q38C91 whole entry): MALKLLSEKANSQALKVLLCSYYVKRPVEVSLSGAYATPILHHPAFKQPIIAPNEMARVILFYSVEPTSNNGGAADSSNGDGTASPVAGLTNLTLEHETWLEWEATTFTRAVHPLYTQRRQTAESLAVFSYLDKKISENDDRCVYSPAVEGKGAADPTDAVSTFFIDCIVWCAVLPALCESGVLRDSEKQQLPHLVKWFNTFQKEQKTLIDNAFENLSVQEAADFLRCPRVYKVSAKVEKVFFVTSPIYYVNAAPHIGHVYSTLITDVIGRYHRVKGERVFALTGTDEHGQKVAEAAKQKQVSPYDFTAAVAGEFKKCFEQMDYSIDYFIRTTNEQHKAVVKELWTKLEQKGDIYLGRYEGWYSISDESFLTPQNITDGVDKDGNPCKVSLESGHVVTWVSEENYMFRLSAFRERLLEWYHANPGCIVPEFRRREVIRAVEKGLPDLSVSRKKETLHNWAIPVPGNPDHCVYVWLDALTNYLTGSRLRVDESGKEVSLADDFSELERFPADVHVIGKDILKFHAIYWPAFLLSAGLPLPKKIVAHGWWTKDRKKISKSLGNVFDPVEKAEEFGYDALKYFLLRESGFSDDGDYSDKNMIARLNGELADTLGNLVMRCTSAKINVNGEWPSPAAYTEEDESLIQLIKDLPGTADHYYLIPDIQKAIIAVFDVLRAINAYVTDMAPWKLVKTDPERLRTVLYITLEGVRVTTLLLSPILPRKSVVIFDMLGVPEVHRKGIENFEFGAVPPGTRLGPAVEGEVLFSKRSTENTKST

[4] = biological target: T2, Methionyl-tRNA synthetase, putative; assay type: functional, Trypanosoma brucei brucei strain 927/4 GUTat10.1; remark: listed apart in the source
[5] = Counterscreen for inhibitors of Trypanosoma brucei methionyl tRNA synthetase (MetRS): Luminescence-based cell-based high throughput dose response assay to identify compounds that are cytotoxic to Jurkat human T lymphocyte cells.; assay type: functional
[6] = Luminescence Cell-Based Dose Confirmation HTS to Identify Inhibitors of Platelet Dense Granule Release. [Related pubchem assays: 1663 (Primary HTS), 1678 (Summary of Project)]; assay type: functional
Protein skinhead-1 = biological target: T3, Protein skinhead-1 (Caenorhabditis elegans, UniProt P34707); assay type: functional
T3 sequence (P34707 whole entry): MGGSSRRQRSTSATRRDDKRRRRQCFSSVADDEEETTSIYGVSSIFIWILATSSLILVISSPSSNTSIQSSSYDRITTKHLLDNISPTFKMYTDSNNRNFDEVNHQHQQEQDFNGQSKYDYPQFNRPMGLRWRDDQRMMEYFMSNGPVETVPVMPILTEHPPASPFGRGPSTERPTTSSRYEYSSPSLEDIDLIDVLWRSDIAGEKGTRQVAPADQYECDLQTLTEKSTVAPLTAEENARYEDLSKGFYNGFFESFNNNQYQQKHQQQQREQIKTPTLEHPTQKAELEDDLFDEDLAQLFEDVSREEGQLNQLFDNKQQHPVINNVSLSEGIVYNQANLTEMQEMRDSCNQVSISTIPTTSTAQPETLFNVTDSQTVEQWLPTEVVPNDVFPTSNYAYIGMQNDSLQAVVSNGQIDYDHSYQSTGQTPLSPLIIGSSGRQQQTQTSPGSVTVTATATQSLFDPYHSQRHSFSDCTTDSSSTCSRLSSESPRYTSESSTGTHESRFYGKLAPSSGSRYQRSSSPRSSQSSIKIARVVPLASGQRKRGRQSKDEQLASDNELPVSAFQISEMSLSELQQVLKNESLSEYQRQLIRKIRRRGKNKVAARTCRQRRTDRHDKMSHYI

[7] = biological target: Luciferin 4-monooxygenase (Photinus pyralis, UniProt P08659); assay: firefly luciferase enzyme inhibitors, dose response, biochemical, luminescence (AID 1891)
Chain of Luciferin 4-monooxygenase (P08659 whole entry): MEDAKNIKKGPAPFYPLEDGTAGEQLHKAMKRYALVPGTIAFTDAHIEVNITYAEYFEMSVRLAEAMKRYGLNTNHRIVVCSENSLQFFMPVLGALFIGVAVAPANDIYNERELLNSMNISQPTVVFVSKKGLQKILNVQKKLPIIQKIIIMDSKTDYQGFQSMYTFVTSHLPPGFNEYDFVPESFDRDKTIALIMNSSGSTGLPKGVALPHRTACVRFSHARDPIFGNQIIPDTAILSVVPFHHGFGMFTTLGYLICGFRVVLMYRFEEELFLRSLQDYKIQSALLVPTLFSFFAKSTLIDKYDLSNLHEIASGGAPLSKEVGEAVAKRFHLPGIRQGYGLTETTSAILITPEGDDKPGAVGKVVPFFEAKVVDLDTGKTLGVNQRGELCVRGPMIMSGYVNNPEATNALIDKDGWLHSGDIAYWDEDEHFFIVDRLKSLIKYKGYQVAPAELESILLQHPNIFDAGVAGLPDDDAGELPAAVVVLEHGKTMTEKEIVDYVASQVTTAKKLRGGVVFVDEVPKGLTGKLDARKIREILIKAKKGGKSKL

[8] = THP-1 cell cytotoxicity, dose response, cytotoxicity control for Vif-APOBEC3G degradation inhibitor project, THP-1 cells (AID 1117359); assay type: functional; details: Human immunodeficiency virus 1, THP-1
[9] = inhibitors of HIV Env-driven cell fusion, dose response, cherry-pick (AID 652057); assay type: functional, cell-based
[10] = CEM21 lymphoblast cell cytotoxicity, dose response, cytotoxicity control for viral fusion inhibitor project, CellTiter-Glo luminescence, cherry-picked (AID 652042); assay type: functional, cell-based;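 also: potency for signal decrease meaning cytotoxicity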
[11] = off-target signal loss in HeLa-CEM21 co-culture – HeLa F-luc CTL cells, cherry-picked, counter-screen for HIV-1 Env fusion inhibitor project, dose response (AID 652040); assay type: functional, cell-based;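 also: potency for signal decrease marking cytotoxic or nonspecific inhibition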
[12] = biological target: T4, Microphthalmia-associated transcription factor (Homo sapiens, UniProt O75030); assay: TRPM1 promoter luciferase signal decrease, dose response, MITF inhibitor project, cell-based, SK-MEL-5, cherry-picked, set 3 (AID 493073); assay type: functional
T4 sequence (O75030 whole entry): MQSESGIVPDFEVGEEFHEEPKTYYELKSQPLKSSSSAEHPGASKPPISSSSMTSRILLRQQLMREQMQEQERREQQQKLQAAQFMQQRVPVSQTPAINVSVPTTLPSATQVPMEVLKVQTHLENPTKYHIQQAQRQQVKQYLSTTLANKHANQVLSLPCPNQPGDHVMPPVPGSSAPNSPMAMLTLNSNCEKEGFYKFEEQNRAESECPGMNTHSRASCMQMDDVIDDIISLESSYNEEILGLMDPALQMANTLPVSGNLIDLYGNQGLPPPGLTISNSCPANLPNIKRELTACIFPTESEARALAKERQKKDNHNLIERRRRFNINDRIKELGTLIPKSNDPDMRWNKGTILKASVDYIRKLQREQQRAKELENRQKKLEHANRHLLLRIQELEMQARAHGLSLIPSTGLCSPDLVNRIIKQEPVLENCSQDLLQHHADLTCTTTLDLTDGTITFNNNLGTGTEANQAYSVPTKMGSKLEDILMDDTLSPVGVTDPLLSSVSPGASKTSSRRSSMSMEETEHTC

[13] = inhibitors of clade B AD8 Env fusion, dose response, cell-based, cherry-pick (AID 652062); assay type: functional;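 also: luciferase signal from cell-cell fusion driven by HIV-1 clade B AD8 Env; potency is for inhibitors of fusion seen as a drop in luminescence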
[14] = ZM109 Env clade C HIV-1 fusion inhibitors, dose response, HeLa effector, CEM target cells, luciferase, cherry-pick (AID 652058); assay type: functional, cell-based
[15] = non-specific cell cytotoxicity, dose response, cytotoxicity control for PAX8 inhibitor project, plate reader, dry powder samples (AID 743021); assay type: functional, cell-based
Paired box protein Pax-8 = Paired box protein Pax-8 (Homo sapiens, UniProt Q06710); assay: inhibitors of PAX8-driven TPO luciferase reporter, dose response, RMG-I cells, cherry-pick (AID 687027); assay type: functional, cell-based;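 also: luciferase reporter driven by Pax8 target thyroperoxidase promoter measured by SteadyGlo luminescence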
Chain of Paired box protein Pax-8 (Q06710 whole entry): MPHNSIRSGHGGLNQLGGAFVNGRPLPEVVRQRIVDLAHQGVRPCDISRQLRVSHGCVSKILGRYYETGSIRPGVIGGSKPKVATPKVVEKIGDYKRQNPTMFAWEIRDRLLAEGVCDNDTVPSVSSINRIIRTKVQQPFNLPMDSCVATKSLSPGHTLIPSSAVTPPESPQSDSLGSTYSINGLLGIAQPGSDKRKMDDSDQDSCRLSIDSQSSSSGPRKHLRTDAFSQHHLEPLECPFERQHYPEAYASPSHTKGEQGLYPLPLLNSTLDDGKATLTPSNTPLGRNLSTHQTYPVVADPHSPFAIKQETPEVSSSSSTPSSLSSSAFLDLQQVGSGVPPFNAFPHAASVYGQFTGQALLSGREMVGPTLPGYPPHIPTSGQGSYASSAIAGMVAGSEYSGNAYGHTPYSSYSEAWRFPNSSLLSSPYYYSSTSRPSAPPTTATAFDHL

[16] = cytotoxicity in OVCAR8 ovarian cancer cells, dose response, PAX8 project, cell-based, plate reader, dry powder samples (AID 743197); assay type: functional; details: OVCAR-8
[17] = HEp-2 cell cytotoxicity, dose response, cytotoxicity control for RSV inhibitor project, HTS (AID 2410); assay type: functional; details: human respiratory syncytial virus
[18] = biological target: T5, Calpain-2 catalytic subunit (Sus scrofa, UniProt P43367); assay: pig calpain II inhibitor potency, dose response, biochemical, fluorogenic peptide substrate (AID 1420); assay type: functional
T5 sequence (P43367 whole entry): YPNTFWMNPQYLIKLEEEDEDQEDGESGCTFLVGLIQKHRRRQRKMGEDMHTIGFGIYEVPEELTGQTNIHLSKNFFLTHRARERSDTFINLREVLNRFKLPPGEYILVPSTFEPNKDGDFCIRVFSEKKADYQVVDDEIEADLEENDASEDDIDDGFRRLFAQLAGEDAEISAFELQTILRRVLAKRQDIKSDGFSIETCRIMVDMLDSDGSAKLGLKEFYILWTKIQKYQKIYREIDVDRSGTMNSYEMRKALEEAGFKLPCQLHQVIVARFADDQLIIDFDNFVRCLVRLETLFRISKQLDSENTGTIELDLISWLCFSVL

Streptokinase A = biological target: T6, Streptokinase A (Streptococcus pyogenes serotype M1, UniProt P10520); assay: S. pyogenes streptokinase expression inhibitors, potency, dose response, plasminogen activation absorbance, OD405 (AID 1914); assay type: functional, Streptococcus pyogenes M1 GAS;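 also: secreted streptokinase activity via plasminogen activation per viability signal from cell pellet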
T6 sequence (P10520 whole entry): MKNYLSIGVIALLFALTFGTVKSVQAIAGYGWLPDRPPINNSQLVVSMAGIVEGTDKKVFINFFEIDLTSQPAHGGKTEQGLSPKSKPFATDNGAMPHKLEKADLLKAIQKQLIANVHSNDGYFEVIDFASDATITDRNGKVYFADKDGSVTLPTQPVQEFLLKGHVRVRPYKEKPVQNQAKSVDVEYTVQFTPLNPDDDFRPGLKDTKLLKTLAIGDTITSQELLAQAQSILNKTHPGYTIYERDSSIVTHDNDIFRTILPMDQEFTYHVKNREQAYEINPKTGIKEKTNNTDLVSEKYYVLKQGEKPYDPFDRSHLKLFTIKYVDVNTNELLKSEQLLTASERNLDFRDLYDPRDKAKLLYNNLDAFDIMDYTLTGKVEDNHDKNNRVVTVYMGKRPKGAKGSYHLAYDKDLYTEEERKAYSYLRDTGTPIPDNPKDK

[19] = MC4R antagonists, dose response, counter-screen for LGR2 antagonist project, cell-based, plate reader, cherry pick (AID 743444); assay type: functional;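 also: transfected HEK 293 cells stimulated with alpha-MSH peptide; potency of inhibitors of the alpha-MSH evoked signal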
[20] = LGR2 antagonists, dose response, cell-based, HEK293, CRE-luciferase reporter, cherry pick, set 2 (AID 743343); assay type: functional;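 also: transfected cells were stimulated with diluted bursicon conditioned medium after compound addition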
[21] = HepG2 cell cytotoxicity, dose response, cytotoxicity control, plate reader, cherry-pick, antagonist series (AID 743416); assay type: functional, cell-based
[22] = A549 cell cytotoxicity, dose response, cytotoxicity control, plate reader, cherry-pick, antagonist series (AID 743412); assay type: functional, cell-based
[23] = HEK293 cell cytotoxicity, dose response, cytotoxicity control, plate reader, cherry-picked samples (AID 743446); assay type: functional, cell-based

Chain of Mu-type opioid receptor (P35372 whole entry): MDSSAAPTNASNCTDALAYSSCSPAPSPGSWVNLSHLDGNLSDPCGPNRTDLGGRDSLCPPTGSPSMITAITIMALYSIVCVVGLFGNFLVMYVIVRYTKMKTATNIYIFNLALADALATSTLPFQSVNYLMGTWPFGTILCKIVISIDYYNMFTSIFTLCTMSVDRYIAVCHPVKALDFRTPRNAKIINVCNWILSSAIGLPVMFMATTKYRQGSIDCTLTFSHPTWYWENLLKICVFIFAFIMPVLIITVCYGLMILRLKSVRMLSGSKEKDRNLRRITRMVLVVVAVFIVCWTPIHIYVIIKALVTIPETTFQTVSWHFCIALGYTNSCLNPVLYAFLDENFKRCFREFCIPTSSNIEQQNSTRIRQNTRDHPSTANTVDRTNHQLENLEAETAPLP

Fc1ccccc1CN1CCN(c2ncccn2)CC1
EC50 (Mu-type opioid receptor): 92.5 µM (inactive)
EC50 [1]: 1.26 µM (active)

Cc1ccnc(NC(=S)NC(=O)c2cccs2)c1
EC50 (cells): > 67.5 µM (inactive)
EC50 [2]: > 67.5 µM (inactive)

O=c1c(Cc2ccc(Cl)cc2Cl)c(O)ccn1Cc1ccncc1
IC50 [3]: 29.2 µM (inactive)
IC50 [4]: 20 µM (inactive)
IC50 [5]: 83.2 µM (inactive)

COc1ccc(CC2(CO)CCN(C(C)COc3ccccc3)CC2)cc1 (centres undefined)
EC50 (Mu-type opioid receptor): 92.4 µM (inactive)
EC50 [1]: 0.115 µM (active)

Cn1c(-c2ccco2)nc2cc3ccccc3cc21
EC50 (cells): > 67.5 µM (inactive)
EC50 [6]: 2.69 µM (active)
EC50 [2]: > 67.5 µM (inactive)
IC50 (Protein skinhead-1): 33.9 µM (active)
EC50 [7]: 0.695 µM (active)

COc1ccc(Cc2nnc(NC(=O)CSc3ccccc3)s2)cc1
CC50 [8]: > 40 µM (active)

O=C(O)c1ccc(N/N=C/c2ccc3nccnc3c2)cc1
AC50 [9]: 0.685 µM (active)
AC50 [10]: 46.5 µM (active)
AC50 [11]: 2.97 µM (active)
EC50 [6]: 7.25 µM (active)
AC50 [12]: 0.696 µM (active)
AC50 [13]: 2.13 µM (active)
AC50 [14]: 6.51 µM (active)
AC50 [15]: 30.5 µM (active)
EC50 [7]: 3.43 µM (active)
AC50 (Paired box protein Pax-8): 2.07 µM (active)

COc1ccc(NC(=O)CSc2ccc(-c3ccccn3)nn2)cc1OC
EC50 (Mu-type opioid receptor): 92.4 µM (inactive)
EC50 [1]: 0.589 µM (active)

COc1ccccc1C#Cc1ccc2c(c1)O[C@H](CN(C)Cc1cccnc1)[C@H](C)CN([C@H](C)CO)S2(=O)=O
AC50 [16]: 31.8 µM (active)
AC50 (Paired box protein Pax-8): 8.98 µM (active)

O=C(Nc1ccc(C(=O)O)cc1)/C(=C\C=C\c1ccccc1)NC(=O)c1cccc(Br)c1
IC50 [3]: 60.7 µM (inactive)
IC50 [4]: 45.6 µM (inactive)
IC50 [5]: 83.3 µM (inactive)
CC50 [17]: 33.7 µM (active)

CC(CNC(=S)Nc1cc(F)cc(F)c1)CSc1ccc(Cl)cc1 (centres undefined)
IC50 [18]: 13.5 µM (not active)
IC50 [3]: 15.4 µM (inactive)
IC50 [4]: 23.9 µM (inactive)
EC50 (Streptokinase A): 30 µM (active)

COc1ccccc1-c1ccc(OCCCN2CCC(C(O)(c3ccccc3)c3ccccc3)CC2)cc1
AC50 [19]: 18.1 µM (active)
AC50 [20]: 16.3 µM (active)
AC50 [21]: 6.44 µM (active)
AC50 [15]: 28.1 µM (active)
AC50 (Paired box protein Pax-8): 10.2 µM (active)
AC50 [22]: 5.11 µM (active)
AC50 [23]: 9.63 µM (active)
